{"source": "patent US12171755B2", "about": "“PAPD5 inhibitors and methods of use thereof” (Children's Medical Center Corporation, priority 2017, dated 2024)", "biological_target": "T1, PAPD5 (Homo sapiens, UniProt Q8NDF8)", "T1 construct": "made in house", "T1 sequence (Q8NDF8 68-698 isoform Q8NDF8-5)": "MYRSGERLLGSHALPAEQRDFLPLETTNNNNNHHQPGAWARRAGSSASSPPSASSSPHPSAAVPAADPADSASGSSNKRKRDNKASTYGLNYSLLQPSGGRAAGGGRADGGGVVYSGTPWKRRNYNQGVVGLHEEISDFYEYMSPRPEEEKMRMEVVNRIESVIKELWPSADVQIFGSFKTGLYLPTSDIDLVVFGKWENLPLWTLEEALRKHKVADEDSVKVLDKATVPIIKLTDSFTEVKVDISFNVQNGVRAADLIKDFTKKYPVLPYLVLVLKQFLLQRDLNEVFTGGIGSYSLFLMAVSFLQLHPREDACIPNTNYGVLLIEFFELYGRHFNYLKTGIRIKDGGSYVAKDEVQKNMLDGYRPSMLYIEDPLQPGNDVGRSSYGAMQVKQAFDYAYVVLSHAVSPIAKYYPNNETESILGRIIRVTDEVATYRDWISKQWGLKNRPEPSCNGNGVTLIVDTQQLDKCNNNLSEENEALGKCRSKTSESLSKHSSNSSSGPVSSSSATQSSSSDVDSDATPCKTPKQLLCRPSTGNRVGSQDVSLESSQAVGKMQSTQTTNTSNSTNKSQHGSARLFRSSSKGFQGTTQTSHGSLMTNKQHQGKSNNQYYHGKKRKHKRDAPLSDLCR", "assay": "High-throughput luminescence (KinaseGlo) RNA polyadenylation assay, ATP utilization by recombinant PAPD5", "assay_type": "biochemical", "conditions": "Table 4 (entries of Table 5), ratio of luminescence with inhibitor to DMSO; for Fold-change determined at compound concentration 33 μM: 33 μM compound; for Fold-change determined at compound concentration 100 μM: 100 μM compound, higher = higher inhibition", "summary_of_the_method": "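Recombinant PAPD5 polyadenylates an oligonucleotide substrate using ATP, and remaining ATP is read by KinaseGlo luciferase luminescence. Compound was incubated for 2 h at room temperature, then with luciferase for 10 min.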"}
{"molecule": "CC(C)c1ccc(C2CC(=O)N3CN(C4CCCCC4)CSC3=C2C#N)cc1", "note": "(stereo not shown) [Entry 195, 3-cyclohexyl-6-oxo-8-(4-propan-2-ylphenyl)-2,4,7,8-tetrahydropyrido[2,1-b][1,3,5]thiadiazine-9-carbonitrile]", "values": [{"measurement": "Fold-change determined at compound concentration 33 μM", "result": 1.072}, {"measurement": "Fold-change determined at compound concentration 100 μM", "result": 1.228}]}
{"molecule": "O=C(O)CSc1nnc2n(-c3ccccc3)c3ccccc3n12", "note": "[Entry 229, [(9-Phenyl-9H-[1,2,4]triazolo[4,3-a]benzimidazol-3-yl)thio]acetic acid]", "values": [{"measurement": "Fold-change determined at compound concentration 33 μM", "result": 1.249}, {"measurement": "Fold-change determined at compound concentration 100 μM", "result": 1.704}]}
{"molecule": "O=c1c(S(=O)(=O)c2cccc(F)c2)c[nH]c2c(F)ccc(Cl)c12", "note": "[Entry 105, 5-chloro-8-fluoro-3-(3-fluorophenyl)sulfonyl-1H-quinolin-4-one]", "values": [{"measurement": "Fold-change determined at compound concentration 33 μM", "result": 1.16}, {"measurement": "Fold-change determined at compound concentration 100 μM", "result": 1.333}]}
{"molecule": "N#Cc1c[nH]n2c(NC3CCCCC3)c(-c3ccccc3F)nc12", "note": "[Entry 235, 3-(cyclohexylamino)-2-(2-fluorophenyl)-5H-imidazo[1,2-b]pyrazole-7-carbonitrile]", "values": [{"measurement": "Fold-change determined at compound concentration 33 μM", "result": 1.177}, {"measurement": "Fold-change determined at compound concentration 100 μM", "result": 1.452}]}
{"molecule": "COc1ccc2c(c1)[nH]c1c(C)nccc12", "note": "[Entry 114, 7-Methoxy-1-methyl-9H-pyrido[3,4-b]indole]", "values": [{"measurement": "Fold-change determined at compound concentration 33 μM", "result": 1.1}, {"measurement": "Fold-change determined at compound concentration 100 μM", "result": 1.342}]}
{"molecule": "Cc1ccc(-c2nnc(Nc3ccc(OCC(N)=O)cc3)c3ccccc23)cc1S(=O)(=O)NCC1CCCO1", "note": "(stereo not shown) [Entry 56, 2-[4-[[4-[4-methyl-3-(oxolan-2-ylmethylsulfamoyl)phenyl]phthalazin-1-yl]amino]phenoxy]acetamide]", "values": [{"measurement": "Fold-change determined at compound concentration 33 μM", "result": 1.226}, {"measurement": "Fold-change determined at compound concentration 100 μM", "result": 1.487}]}
{"molecule": "Cn1c(=O)c2c(nc(Sc3nnc(NC(=O)c4ccccc4Br)s3)n2C)n(C)c1=O", "note": "[Entry 81]", "values": [{"measurement": "Fold-change determined at compound concentration 33 μM", "result": 1.107}, {"measurement": "Fold-change determined at compound concentration 100 μM", "result": 1.288}]}
{"molecule": "3-{7-Oxo-2.8.10- triazatricyclo[7.4.0.02,6]trideca- 1(13),3,5,9,11-pentaen-8-yl}propionic acid [Entry 68]", "values": [{"measurement": "Fold-change determined at compound concentration 33 μM", "result": 1.162}, {"measurement": "Fold-change determined at compound concentration 100 μM", "result": 1.389}]}
{"molecule": "Cc1cccc2c(=O)cc(C(=O)Nc3nnc(C(C)C)s3)oc12", "note": "[Entry 117, 8-methyl-4-oxo-N-(5-propan-2-yl-1,3,4-thiadiazol-2-yl)chromene-2-carboxamide]", "values": [{"measurement": "Fold-change determined at compound concentration 33 μM", "result": 1.177}, {"measurement": "Fold-change determined at compound concentration 100 μM", "result": 1.444}]}
{"molecule": "COc1cccc(CNC2=Nc3ccccc3NC23CCCCC3)c1", "note": "[Entry 63, N-[(3-methoxyphenyl)methyl]spiro[4H-quinoxaline-3,1′-cyclohexane]-2-amine]", "values": [{"measurement": "Fold-change determined at compound concentration 33 μM", "result": 1.113}, {"measurement": "Fold-change determined at compound concentration 100 μM", "result": 1.417}]}
{"molecule": "COc1ccc(NC(=O)c2ccc3c(SCC(=O)O)c4c(nc3c2)CCC4)c(OC)c1", "note": "[Entry 87, 2-[[6-[(2,4-dimethoxyphenyl)carbamoyl]-2,3-dihydro-1H-cyclopenta[b]quinolin-9-yl]sulfanyl]acetic acid]", "values": [{"measurement": "Fold-change determined at compound concentration 33 μM", "result": 1.097}, {"measurement": "Fold-change determined at compound concentration 100 μM", "result": 1.253}]}
{"molecule": "CCc1cccc(NC(=O)Nc2cn(C)c(=O)c3ccccc23)c1", "note": "[Entry 61, 1-(3-ethylphenyl)-3-(2-methyl-1-oxoisoquinolin-4-yl)urea]", "values": [{"measurement": "Fold-change determined at compound concentration 33 μM", "result": 1.07}, {"measurement": "Fold-change determined at compound concentration 100 μM", "result": 1.235}]}
{"molecule": "CCn1c(SCC(=O)O)nc2c(=O)n(C)c(=O)n(C)c21", "note": "[Entry 77, 2-(9-ethyl-1,3-dimethyl-2,6-dioxopurin-8-yl)sulfanylacetic acid]", "values": [{"measurement": "Fold-change determined at compound concentration 33 μM", "result": 1.142}, {"measurement": "Fold-change determined at compound concentration 100 μM", "result": 1.419}]}
{"molecule": "Cc1nnc(NC(=O)c2cc(=O)c3cc(F)ccc3o2)s1", "note": "[Entry 120, 6-fluoro-N-(5-methyl-1,3,4-thiadiazol-2-yl)-4-oxo-4H-chromene-2-carboxamide]", "values": [{"measurement": "Fold-change determined at compound concentration 33 μM", "result": 1.1}, {"measurement": "Fold-change determined at compound concentration 100 μM", "result": 1.381}]}
{"molecule": "Cc1ccc2c(=O)cc(C(=O)Nc3nnc(C)s3)oc2c1", "note": "[Entry 116, 7-methyl-N-(5-methyl-1,3,4-thiadiazol-2-yl)-4-oxo-4H-chromene-2-carboxamide]", "values": [{"measurement": "Fold-change determined at compound concentration 33 μM", "result": 1.459}, {"measurement": "Fold-change determined at compound concentration 100 μM", "result": 2.138}]}
{"molecule": "Cc1cccc(C(=O)Nc2nc3nc(-c4ccccc4)cc(=O)n3[nH]2)c1", "note": "[Entry 151, 3-methyl-N-(7-oxo-5-phenyl-1H-[1,2,4]triazolo[1,5-a]pyrimidin-2-yl)benzamide]", "values": [{"measurement": "Fold-change determined at compound concentration 33 μM", "result": 1.312}, {"measurement": "Fold-change determined at compound concentration 100 μM", "result": 1.799}]}
{"molecule": "O=C(O)Cc1c2ccccc2n2c1[nH]c(=O)c1ccccc12", "note": "[Entry 222, 2-(5-oxo-6H-indolo[1,2-a]quinazolin-7-yl)acetic acid]", "values": [{"measurement": "Fold-change determined at compound concentration 33 μM", "result": 1.05}, {"measurement": "Fold-change determined at compound concentration 100 μM", "result": 1.205}]}
{"molecule": "CCOCCCNC(=O)Cn1cc2c(n1)-c1c(oc(C(=O)N3CCCC3)c1C)CC2", "note": "[Entry 169, N-(3-ethoxypropyl)-2-[8-methyl-7-(pyrrolidine-1-carbonyl)-4,5-dihydrofuro[2,3-g]indazol-2-yl]acetamide]", "values": [{"measurement": "Fold-change determined at compound concentration 33 μM", "result": 1.455}, {"measurement": "Fold-change determined at compound concentration 100 μM", "result": 1.879}]}
{"molecule": "O=c1c2sccc2n2c(=S)[nH]nc2n1Cc1ccccc1", "note": "[Entry 75, 4-benzyl-1-thioxo-2,4-dihydrothieno[2,3-e][1,2,4]triazolo[4,3-a]pyrimidin-5(1H)-one]", "values": [{"measurement": "Fold-change determined at compound concentration 33 μM", "result": 1.11}, {"measurement": "Fold-change determined at compound concentration 100 μM", "result": 1.324}]}
{"molecule": "Cc1ccc2c(=O)cc(CSc3ncn[nH]3)[nH]c2c1C", "note": "[Entry 107, 7,8-dimethyl-2-(1H-1,2,4-triazol-5-ylsulfanylmethyl)-1H-quinolin-4-one]", "values": [{"measurement": "Fold-change determined at compound concentration 33 μM", "result": 1.319}, {"measurement": "Fold-change determined at compound concentration 100 μM", "result": 1.883}]}
{"molecule": "Cc1ccc2c(=O)cc(C(=O)Nc3nnc(CC(C)C)s3)oc2c1C", "note": "[Entry 126, 7,8-dimethyl-N-[5-(2-methylpropyl)-1,3,4-thiadiazol-2-yl]-4-oxochromene-2-carboxamide]", "values": [{"measurement": "Fold-change determined at compound concentration 33 μM", "result": 1.15}, {"measurement": "Fold-change determined at compound concentration 100 μM", "result": 1.302}]}
{"molecule": "Cc1ccc(S(=O)(=O)NC2=NC3=NC(c4ccccc4)=CC(c4ccc(Cl)cc4)N3N2)cc1", "note": "(stereo not shown) [Entry 159, N-[7-(4-chlorophenyl)-5-phenyl-1,7-dihydro-[1,2,4]triazolo[1,5-a]pyrimidin-2-yl]-4-methylbenzenesulfonamide]", "values": [{"measurement": "Fold-change determined at compound concentration 33 μM", "result": 1.12}, {"measurement": "Fold-change determined at compound concentration 100 μM", "result": 1.22}]}
{"molecule": "Cc1ccc2c(c1)n(Cc1ccc(Cl)cc1)c(=O)c1nc(C(=O)O)nn12", "note": "[Entry 213, 5-(4-chlorobenzyl)-7-methyl-4-oxo-4,5-dihydro[1,2,4]triazolo[1,5-a]quinoxaline-2-carboxylic acid]", "values": [{"measurement": "Fold-change determined at compound concentration 33 μM", "result": 1.199}, {"measurement": "Fold-change determined at compound concentration 100 μM", "result": 1.579}]}
{"molecule": "Cn1c(=O)c2nc(SCC(=O)O)n(Cc3ccccc3)c2n(C)c1=O", "note": "[Entry 80, 2-(9-benzyl-1,3-dimethyl-2,6-dioxopurin-8-yl)sulfanylacetic acid]", "values": [{"measurement": "Fold-change determined at compound concentration 33 μM", "result": 1.164}, {"measurement": "Fold-change determined at compound concentration 100 μM", "result": 1.55}]}
{"molecule": "CC1CCN(C(=O)CSc2nc3c(c(=O)n2Cc2ccccc2)SCC3)CC1", "note": "[Entry 232, 3-benzyl-2-((2-(4-methylpiperidin-1-yl)-2-oxoethyl)thio)-6,7-dihydrothieno[3,2-d]pyrimidin-4(3H)-one]", "values": [{"measurement": "Fold-change determined at compound concentration 33 μM", "result": 1.198}, {"measurement": "Fold-change determined at compound concentration 100 μM", "result": 1.342}]}
{"molecule": "CCCCN(CC)C(=O)CCCn1c(=O)c2cccn2c2ccccc21", "note": "[Entry 66, N-butyl-N-ethyl-4-(4-oxopyrrolo[1,2-a]quinoxalin-5-yl)butanamide]", "values": [{"measurement": "Fold-change determined at compound concentration 33 μM", "result": 1.083}, {"measurement": "Fold-change determined at compound concentration 100 μM", "result": 1.229}]}
{"molecule": "O=c1c2c([nH]c3nc(CNc4ccc(Br)cc4)nn13)CCC2", "note": "[Entry 152, 2-{[(4-bromophenyl)amino]methyl}-4,5,6,7-tetrahydro-8H-cyclopenta[d][1,2,4]triazolo[1,5-a]pyrimidin-8-one]", "values": [{"measurement": "Fold-change determined at compound concentration 33 μM", "result": 1.146}, {"measurement": "Fold-change determined at compound concentration 100 μM", "result": 1.461}]}
{"molecule": "N#CC1=C2SCN(C3CCCCC3)CN2C(=O)CC1c1ccc(Br)cc1", "note": "(stereo not shown) [Entry 196, 8-(4-bromophenyl)-3-cyclohexyl-6-oxo-3,4,7,8-tetrahydro-2H,6H-pyrido[2,1-b][1,3,5]thiadiazine-9-carbonitrile]", "values": [{"measurement": "Fold-change determined at compound concentration 33 μM", "result": 1.09}, {"measurement": "Fold-change determined at compound concentration 100 μM", "result": 1.326}]}
{"molecule": "CCN(CC)CCNC(=O)c1ccc(Cn2c(=O)c3cccn3c3cccnc32)cc1", "note": "[Entry 69, N-(2-(diethylamino)ethyl)-4-((6-oxopyrido[2,3-e]pyrrolo[1,2-a]pyrazin-5(6H)-yl)methyl)benzamide]", "values": [{"measurement": "Fold-change determined at compound concentration 33 μM", "result": 1.116}, {"measurement": "Fold-change determined at compound concentration 100 μM", "result": 1.223}]}
{"molecule": "O=C(NCCN1CCCC1)c1ccc(Cn2c(SCc3ccc(Cl)cc3)nc3ccncc32)cc1", "note": "[Entry 203, 4-({2-[(4-chlorobenzyl)thio]-3H-imidazo[4,5-c]pyridin-3-yl}methyl)-N-(2-pyrrolidin-1-ylethyl)benzamide]", "values": [{"measurement": "Fold-change determined at compound concentration 33 μM", "result": 1.106}, {"measurement": "Fold-change determined at compound concentration 100 μM", "result": 1.31}]}
{"molecule": "COc1cc(-c2nc(C(N)=O)c3[nH]c(=O)n(CC4CCCO4)c3n2)ccc1O", "note": "(stereo not shown) [Entry 165, 2-(4-hydroxy-3-methoxyphenyl)-8-oxo-9-(tetrahydrofuran-2-ylmethyl)-8,9-dihydro-7H-purine-6-carboxamide]", "values": [{"measurement": "Fold-change determined at compound concentration 33 μM", "result": 1.224}, {"measurement": "Fold-change determined at compound concentration 100 μM", "result": 1.689}]}
{"molecule": "CCOC(=O)c1cccc(NC(=O)c2oc3c(c2C)-c2nn(CC)cc2CC3)c1", "note": "[Entry 173, ethyl 3-[(2-ethyl-8-methyl-4,5-dihydrofuro[2,3-g]indazole-7-carbonyl)amino]benzoate]", "values": [{"measurement": "Fold-change determined at compound concentration 33 μM", "result": 1.19}, {"measurement": "Fold-change determined at compound concentration 100 μM", "result": 1.657}]}
